Source: paper PMC12263422, “Cryo-EM structure of the human THIK-1 K2P K^+ channel reveals a lower Y gate regulated by lipids and anesthetics” (Nature Structural & Molecular Biology, 2025)
“And” between values parts separate entries of the source, which are not always exact repeats. Equal values may be shown once. Read-outs that look alike come from different tables or passages of the source.

Experiments:
THIK-1 N261A = target: T1, THIK-1 N261A (Homo sapiens, UniProt Q9HB14, N261A); assay: Inside-out excised patch recordings, oocytes, THIK-1 N261A mutant (lipid activation); type: cell-based; conditions: read-out: Linoleic acid EC50
T1 construct: expressed in transfected cells; host or cells: Xenopus oocytes (mRNA injection)
T1 sequence (Q9HB14 whole entry N261A): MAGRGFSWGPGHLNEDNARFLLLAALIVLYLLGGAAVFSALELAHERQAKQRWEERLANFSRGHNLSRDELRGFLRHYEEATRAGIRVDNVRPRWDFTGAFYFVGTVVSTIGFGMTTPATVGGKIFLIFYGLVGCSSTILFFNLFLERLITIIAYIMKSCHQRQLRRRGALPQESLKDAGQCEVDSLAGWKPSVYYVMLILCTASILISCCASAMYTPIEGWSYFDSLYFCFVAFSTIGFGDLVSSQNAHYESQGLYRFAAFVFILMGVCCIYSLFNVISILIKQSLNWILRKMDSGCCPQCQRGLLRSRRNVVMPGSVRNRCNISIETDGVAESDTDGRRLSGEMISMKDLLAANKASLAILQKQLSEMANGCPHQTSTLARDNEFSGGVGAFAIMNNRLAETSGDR
Source text: Supplement 41594_2025_1497_MOESM2_ESM.xlsx, sheet "ExtData_Fig_S5f" | column: Linoleic acid EC50 (µM); N261A

THIK-2*-Y292A = target: T2, THIK-2*-Y292A (Homo sapiens, UniProt Q9HB15, R11A/R12A/R14A/R15A/R16A/Y292A); assay: Inside-out excised patch recordings, oocytes, THIK-2* Y292A; type: cell-based
T2 construct: expressed in transfected cells; host or cells: Xenopus oocytes (mRNA injection)
T2 sequence (Q9HB15 1-430 R11A/R12A/R14A/R15A/R16A/Y292A): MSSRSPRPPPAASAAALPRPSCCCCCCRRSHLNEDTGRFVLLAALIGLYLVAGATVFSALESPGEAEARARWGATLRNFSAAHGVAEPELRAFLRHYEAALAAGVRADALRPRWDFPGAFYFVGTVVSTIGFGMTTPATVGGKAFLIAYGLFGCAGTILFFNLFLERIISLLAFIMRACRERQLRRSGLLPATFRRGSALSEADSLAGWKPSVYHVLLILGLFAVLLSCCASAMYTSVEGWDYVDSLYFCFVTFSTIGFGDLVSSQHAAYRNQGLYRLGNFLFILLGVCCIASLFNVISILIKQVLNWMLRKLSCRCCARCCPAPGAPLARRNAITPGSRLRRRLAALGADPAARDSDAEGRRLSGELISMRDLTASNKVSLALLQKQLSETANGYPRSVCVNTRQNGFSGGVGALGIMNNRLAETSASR
Source text: Human K2P13.1 THIK-1 (GenBank accession number: NM_022054) and human K2P12.1 THIK-2 (NM_022055.1) were used in this study. For functional expression studies, the respective K^+ channel subtype coding sequences were subcloned into the oocyte expression vector pSGEM or the dual-purpose expression vector pFAW[41] and verified by sequencing. All mutant channels were obtained by site-directed mutagenesis and verified by sequencing. To increase surface expression and macroscopic currents, measurements of THIK-2 channels used a mutated ER retention motif, (R11A R12A R14A R15A R16A; THIK-2*)[20]. Vector DNA was linearized with NheI or MluI, and mRNA was synthesized in vitro using the SP6 or T7 AmpliCap Max High Yield Message Maker Kit (Cellscript, USA) or HiScribe T7 ARCA mRNA Kit (New England Biolabs).
Two-electrode voltage–clamp (TEVC) studies were performed in Xenopus oocytes. All animal use conformed to the Guide for the Care and Use of Laboratory Animals (NIH Publication 85–23), and all experiments using Xenopus toads were approved by the local ethics panels. Oocytes were stored at 17 °C in ND96 recording solution composed of (in mM): 96 NaCl, 2 KCl, 1.8 CaCl2, 1 MgCl2, 5 HEPES (pH 7.5 adjusted with NaOH and HCl), supplemented with Na-pyruvate (275 mg L^–1), theophylline (90 mg L^–1) and gentamicin (50 mg L^–1). Oocytes were injected with 1 ng mRNA for WT or mutant channels, and were incubated for 24–48 h at 17 °C. Two-electrode voltage clamp recordings were then performed as previously described[42],[43]. For macroscopic patch–clamp measurements, oocytes were obtained as described above incubated at 17 °C in a solution containing (mM): 54 NaCl, 30 KCl, 2.4 NaHCO3, 0.82 MgSO4 ×7 H2O, 0.41 CaCl2, 0.33 Ca(NO3)2 ×4 H2O and 7.5 TRIS (pH 7.4 adjusted with NaOH and HCl) for 1–4 days before use. Excised patch recordings in inside-out configuration conditions were performed at room temperature. Patch pipettes were made from thick-walled borosilicate glass GB 200TF-8P (Science Products), had resistances of 0.2–0.5 MΩ (tip diameter, 10–25 µm) and filled with a pipette solution (in mM): 120 KCl, 10 HEPES and 3.6 CaCl2 (pH 7.4 adjusted with KOH and HCl). Intracellular bath solutions and compounds were applied to the cytoplasmic side of excised patches for the various K^+ channels through a gravity flow multi-barrel pipette system. The intracellular solution had the following composition (in mM): 120 KCl, 10 HEPES, 2 EGTA and 1 pyrophosphate (pH adjusted with KOH and HCl). Currents were recorded with an EPC10 amplifier (HEKA Electronics) and sampled at 10 kHz or higher, with filtering set to 3 kHz (–3 dB) or higher, as appropriate for sampling rate. For measurements of GPCR activation, whole-cell currents were recorded for THIK-1 in transiently transfected HEK-293 cells. Cells were stimulated by a ramp protocol between −100 and +60 mV (holding potential, −80 mV). The pipette solution was composed of (in mM): 140 KCl, 2 MgCl2, 1 CaCl2, 2.5 EGTA and 10 HEPES (pH 7.3 adjusted with KOH and HCl). The extracellular bath solution had the following composition (in mM): 135 NaCl, 5 KCl, 2 MgCl2, 2 CaCl2, 10 glucose and 10 HEPES pH (pH 7.3 adjusted with NaOH and HCl). Oxotremorine M (Oxo-M) was added to extracellular bath solution to obtain the final concentration. Single-channel currents were recorded with an Axopatch 200B amplifier through a Digidata 1440A digitizer (Molecular Devices). Data were filtered at 2 kHz and recorded at a 200-kHz sampling rate with the program Clampex (Molecular Devices). Pipette solution and bath solution for cell-attached recordings contained (in mM): 140 KCl, 2 MgCl2, 1 CaCl2 and 10 HEPES (pH 7.4 adjusted with KOH and HCl). For inside-out recordings, the bath solution contained (in mM): 140 KCl, 2 MgCl2, 1 CaCl2 and 10 HEPES (pH 7.2 adjusted with KOH and HCl). All experiments were conducted at room temperature. […]

| SMILES | EC50 (THIK-1 N261A; individual recordings) | EC50 (THIK-1 N261A; mean) | Normalized currents (THIK-2*-Y292A; 0.1 µM TPenA) | Normalized currents (THIK-2*-Y292A; 1 µM TPenA) | Normalized currents (THIK-2*-Y292A; 10 µM TPenA) | Normalized currents (THIK-2*-Y292A; 100 µM TPenA) | Normalized currents (THIK-2*-Y292A; 1000 µM TPenA) | Normalized currents (THIK-2*-Y292A; 5000 µM TPenA) | τ of 1 mM TPenA block (THIK-2*-Y292A; individual recordings) | τ of 1 mM TPenA release (THIK-2*-Y292A; individual recordings) | τ of 1 mM TPenA block (THIK-2*-Y292A; mean) | τ of 1 mM TPenA release (THIK-2*-Y292A; mean) |
| --- | --- | --- | --- | --- | --- | --- | --- | --- | --- | --- | --- | --- |
| CCCCC/C=C\C/C=C\CCCCCCCC(=O)O [linoleic acid] | 92.8 µM and 196 µM and 39.8 µM and 91.8 µM and 102 µM and 140 µM | 110 µM | – | – | – | – | – | – | – | – | – | – |
| CCCCC[N+](CCCCC)(CCCCC)CCCCC [TPenA, tetrapentylammonium] | – | – | 1.00 | 0.93 | 0.74 | 0.42 | 0.09 | 0.07 | 0.090 s and 0.080 s and 0.060 s and 0.150 s and 0.070 s | 0.680 s and 0.860 s and 0.410 s and 0.480 s and 1.100 s and 0.400 s | 0.09 s | 0.66 s |
